Read-outs that look alike come from different tables or passages of the source. Marks after values point to notes of the source that are not given here.
Key:
5-LO = molecular target: T1, 5-LO (Rattus norvegicus, UniProt P12527); assay: di-HETE production by RBL-1 high speed supernatant; assay type: biochemical; conditions: Table 9A; di-HETE production by RBL-1 high speed supernatant; read-out: 5-LO IC50
T1 construct: The activities of these enzymes in extracts of RBL-1 cells were assayed; host or cells: RBL-1 cells, disrupted by nitrogen cavitation; 10,000 x g or 100,000 x g supernatant
T1 sequence (P12527 1-673): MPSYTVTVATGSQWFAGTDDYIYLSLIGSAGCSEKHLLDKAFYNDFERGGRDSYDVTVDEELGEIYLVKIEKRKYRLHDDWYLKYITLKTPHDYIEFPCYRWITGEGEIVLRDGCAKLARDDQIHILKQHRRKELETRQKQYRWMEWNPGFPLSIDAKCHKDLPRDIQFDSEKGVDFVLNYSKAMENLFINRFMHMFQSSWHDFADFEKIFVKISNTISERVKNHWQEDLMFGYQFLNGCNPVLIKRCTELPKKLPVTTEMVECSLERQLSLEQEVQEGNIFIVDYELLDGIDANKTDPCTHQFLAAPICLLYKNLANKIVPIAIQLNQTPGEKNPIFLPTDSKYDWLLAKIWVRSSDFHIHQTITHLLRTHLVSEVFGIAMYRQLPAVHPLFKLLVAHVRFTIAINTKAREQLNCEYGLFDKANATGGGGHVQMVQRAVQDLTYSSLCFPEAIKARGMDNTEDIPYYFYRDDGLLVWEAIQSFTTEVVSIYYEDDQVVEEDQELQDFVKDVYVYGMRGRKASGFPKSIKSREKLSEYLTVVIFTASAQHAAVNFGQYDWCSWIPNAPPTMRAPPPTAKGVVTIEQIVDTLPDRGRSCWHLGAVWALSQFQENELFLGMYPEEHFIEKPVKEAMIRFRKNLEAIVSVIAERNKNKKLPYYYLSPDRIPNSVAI
Method: (§1) For in vitro experiments, compounds were dissolved at appropriate concentrations in ethanol or DMSO (dimethylsulfoxide) (final concentration <1.0%) and then diluted to final concentrations using the buffers indicated in the text.
(§2) The activities of these enzymes in extracts of RBL-1 cells were assayed using the method of Jakschik and Lee, Nature, 287, 51-52 (1980). RBL-1 cells were obtained from the American Type Culture Collection (#CRL 1378) and were grown at 37°C (5% CO₂ in air) in spinner culture in MEM supplemented with 10% heat inactivated fetal calf serum. Harvested cells were washed with 50 mM sodium phosphate buffer, pH 7.0, containing 1 mM EDTA and 0.1% gelatin, resuspended in fresh buffer (5 x 10⁷ cells/ml) and disrupted by nitrogen cavitation using the Parr bomb at 750 psi for 10 min. The broken cell extract was then centrifuged at 10,000 x g for 20 minutes and the supernatant centrifuged at 100,000 x g for 60 minutes. Aliquots (0.25 mls) of the supernatant were preincubated with or without drugs for 10 min, after which 10 ul CaCl₂ (50 mM) was added and the reaction was initiated with 2.5 ul of 2.5 mM arachidonic acid-1-¹⁴C (final concentration was […]; specific activity 20,000 dpm/nmole). After incubation for 3 min at 37°C, the reaction was terminated by addition of 2 volumes (0.5 ml) ice cold acetone and the sample was allowed to deproteinize on ice for 10 min prior to centrifugation at 1,000 x g for 10 min. The deproteinized supernatant was adjusted to pH 3.5 with 2N formic acid and extracted with 2 volumes of ice cold ethyl acetate. The extracted samples were dried under argon, redissolved in ethyl acetate and applied to Whatman LK5D thin layer chromatography (TLC) plates which were developed using the A-9 solvent system [organic phase of ethyl acetate: 2,2,5-trimethylpentane:acetic acid: water (110:50:20:10)] described by Hamberg and Samuelsson, J. Biol. Chem., 241, 257-263 (1966). Arachidonic acid, 5-HETE, di-HETE and PGD₂ were quantified with a Berthold LB 2832 autoscanner.
(§3) The 5-lipoxygenase and LTA₄ synthetase activities were further studied under the following conditions. An additional centrifugation of the RBL-1 supernatant was run at 100,000 x g for 60 min, to remove the particulate cyclooxygenase activity. Sample incubation was done under conditions similar to those described above, i.e., 2 mM CaCl₂ and 25 uM arachidonic acid-1-¹⁴C, however, with an incubation time of 5 min at […]. Under these conditions, only the 5-lipoxygenase pathway metabolites were detectable. The 5-HETE and di-HETEs were formed at a linear rate, and […] amounts of the arachidonic acid-1-¹⁴C substrate were utilized.

5-Lipoxygenase = molecular target: T2, 5-Lipoxygenase (Rattus norvegicus, UniProt P12527); assay: 5-HETE production by RBL-1 high speed supernatant; assay type: biochemical; conditions: Table 8A; RBL-1 high speed supernatant
T2 construct: The activities of these enzymes in extracts of RBL-1 cells were assayed; host or cells: RBL-1 cells, disrupted by nitrogen cavitation; 10,000 x g or 100,000 x g supernatant
T2 sequence (P12527 1-673): T1 sequence (P12527 1-673)
Method: as §1, §2, §3

[1] = system: Arachidonic Acid-Induced Inflammation of the Mouse Ear; assay: Arachidonic acid-induced mouse ear inflammation; assay type: in vivo, Balb/c mice; conditions: for % Inhibition of Ear Swelling: Table 7A, NS = not significant; for % Change / Increase in Ear Thickness at 1 Hour (x 10⁻³ cm): Table 7, p.o.
Source text: (§4) In the following Examples where mice were used, they were male Balb/c mice (20-28 g), and where rats were used, they were male Lewis rats (180-210 g). All mice and rats were obtained from Charles River Breeding Laboratories, Kingston, N.Y. Within a single experiment, mice and rats were sex and age matched.
(§5) The compounds of Formula (IA) were used either as the free base or in the appropriate salt form. Levamisole was used as the hydrochloride salt. The compounds were homogenized in 0.5% tragacanth. Compounds were administered by gavage at the indicated dose in a final volume of 10 ml/kg. Nordihydroguaiaretic acid (NDGA) was solubilized in dimethylacetamide and diluted with olive oil for subcutaneous administration.
Arachidonic acid in acetone (2 mg/20 ul) was applied to the inner surface of the left ear. The thickness of both ears was then measured with a dial micrometer one hour after treatment, and the data were expressed as the change in thickness (10⁻³ cm) between treated and untreated ears.
Test compounds were given orally in 0.5% tragacanth at the times indicated in the text prior to the topical application of arachidonic acid.
Parenteral administration of compound was accomplished by subcutaneous injection of solution as indicated.

[2] = system: Polymorphonuclear Leukocytes; assay: Mouse Carrageenan Peritonitis (PMN infiltration); assay type: in vivo, Balb/c mice; conditions: p.o.
Source text: as §4, §5
Mice were pretreated with either the test compound or vehicle one hour before the intraperitoneal injection of a 1.0% carrageenan suspension in saline (0.2 ml/ mouse). Mice were sacrificed by cervical dislocation two hours after injection, and 3.0 ml of phosphate buffered saline, without Ca⁺⁺ or Mg⁺⁺, was injected into the peritoneum. Following massage, a 2.0 ml aliquot of the lavage fluid was removed, and the total cell count determined on a Coulter counter and differential cell count determined by microscopic examination of Giesma-stained slides.

[3] = system: Production of PGE₂ by Mouse Peritoneal Exudate Cells; assay: PGE2 production by peritoneal macrophages; assay type: cell-based
Method: as §1
Mice were injected intraperitoneally with 350 »g Corynebacterium parvum and the peritoneal exudate cell population was harvested 12-14 days later by peritoneal lavage with cold phosphate-buffered saline, and resuspended in Eagles minimal essential medium supplemented with 5% fetal calf serum. […] Test compounds were added (100 ul) to bring the final volume to 1.0 ml. Lipopolysaccharide (5 »g/ml) was then added to stimulate PGE₂ synthesis. After incubation at 37°C for 2 hours, cell-free supernatants were harvested, placed in polypropylene tubes and frozen at -20°C until assayed for their PGE₂ content using a commercial radioimmunoassay kit. IC₅₀ is the concentration that inhibits 50% of control activity.

[4] = Macrophage, read-out: IC₅₀ production of PGE₂ by inflammatory macrophages
[5] = Table 2, Experiment 1, 12.5 mg/kg
[6] = Table 2, Experiment 1, 25 mg/kg
[7] = Table 2, Experiment 1, 50 mg/kg

Structure (SMILES) | IC50 (5-LO) [µM] | IC50 (5-Lipoxygenase) [µM] | % Inhibition of Ear Swelling ([1]; 50 mg/kg s.c. or i.p.) | further results
CC(=O)OC[C@H]1O[C@@H]([S-])[C@H](OC(C)=O)[C@@H](OC(C)=O)[C@@H]1OC(C)=O.CCP(CC)CC.[Au+] [Auranofin] |  |  |  | PMN x 10⁻⁵/ml (mean ± S.D.) ([2]; Table 3, 2 (mg Au/kg)): 7.50 ± 1.57 x 10⁻⁵/ml
COc1ccc(-c2nc3n(c2-c2ccncc2)CC[S+]3[O-])cc1 (stereo not shown) [Compound 41] |  |  | 45*** % | 
COc1ccc2cc([C@H](C)C(=O)O)ccc2c1 [Naproxen] |  |  |  | IC50 [3, 4]: 1.8 µM; IC50 ([3]; Peritoneal macrophage, read-out: IC₅₀ (»M) production of PGE₂): 1.8 µM
[O-][S+]1CCn2c1nc(-c1ccncc1)c2-c1ccc(F)cc1 (stereo not shown) [Compound 42] | 60 | 101 | 50*** % | 
c1ccc([C@H]2CN3CCSC3=N2)cc1 [Levamisole] |  |  |  | % Change ([2]; Table 3, 100 mg/kg): -37^b %; PMN x 10⁻⁵/ml (mean ± S.D.) ([2]; Table 3, 100 mg/kg): 5.88 ± 2.70 x 10⁻⁵/ml
C[C@@H]1C[C@H]2[C@@H]3CCC4=CC(=O)C=C[C@]4(C)[C@@]3(F)[C@@H](O)C[C@]2(C)[C@@]1(O)C(=O)CO [Dexamethasone] |  |  |  | % Change [2, 5]: -54^b %; PMN x 10⁻⁵/ml (mean ± S.D.) [2, 5]: 9.1 ± 2.0 x 10⁻⁵/ml; % Change [2, 6]: -55^b %; PMN x 10⁻⁵/ml (mean ± S.D.) [2, 6]: 8.8 ± 2.6 x 10⁻⁵/ml; % Change [2, 7]: -69^b %; PMN x 10⁻⁵/ml (mean ± S.D.) [2, 7]: 6.1 ± 1.5 x 10⁻⁵/ml; % Change ([1]; 25 mg/kg, pretreated at 2 hrs): -35^c %; Increase in Ear Thickness at 1 Hour (x 10⁻³ cm) ([1]; 25 mg/kg, pretreated at 2 hrs): 18.2 ± 4.1 x 10⁻³ cm
CSc1ccc(-c2nc3n(c2-c2ccc(F)cc2)CCS3)cc1 [Compound 47] |  |  | 22*** % | 
CC(C)Cc1ccc(C(C)C(=O)O)cc1 (stereo not shown) [Ibuprofen, reference compound] |  |  |  | IC50 [3, 4]: 0.5 µM; IC50 ([3]; Peritoneal macrophage, Table 10, LPS-stimulated, C. parvum-elicited peritoneal exudate cells, read-out: IC₅₀ (»M) production of PGE₂): 0.5 µM; % Change ([1]; 250 mg/kg): +20^b %; Increase in Ear Thickness at 1 Hour (x 10⁻³ cm) ([1]; 250 mg/kg): 30.8 ± 2.0 x 10⁻³ cm
COc1ccc(-c2nc3n(c2-c2ccncc2)CCC3)cc1 [Compound 40, 2-(4-methoxyphenyl)-3-(4-pyridyl)-6,7-dihydro-[5H]-pyrrolo [1,2-a]imidazole] | 10 | 16 |  | % Inhibition of Ear Swelling ([1]; 50 mg/kg oral dosing (p.o.)): 83 (p.o.) %

Second part, led by results:

IC50 (5-LO) [µM] | IC50 (5-Lipoxygenase) [µM] | Structure (SMILES) | % Inhibition of Ear Swelling ([1]; 50 mg/kg s.c. or i.p.) | further results
53 | 73 | O=C(c1ccccc1)N1C=CC(c2c(-c3ccc(F)cc3)nc3n2CCS3)C=C1 [Compound 49] | 15* % | 
7 | 9 | CCOC(=O)N1C=CC(c2c(-c3ccc(F)cc3)nc3n2CCS3)C=C1 [Compound 48] | 25*** % | 
32 | 67 | Fc1ccc(-c2nc3n(c2-c2ccncc2)CCC3)cc1 [Compound 39, 2-(4-fluorophenyl)-3-(4-pyridyl)-6,7-dihydro-[5H]-pyrrolo [1,2-a]imidazole] | 93% | 
1.5 | 5 | CN(C)c1ccc(-c2c(-c3ccc(F)cc3)nc3n2CCS3)cc1 [Compound 10, 5-(4-N,N-Dimethylaminophenyl)-6-(4-fluorophenyl)-2,3-dihydroimidazo[2,1-b]thiazole] | 17* % | 

From patent EP0231622B1, “Inhibition of the 5-lipoxygenase pathway” (priority 1985, dated 1987)
